How the values were obtained:
Format in all cases: in vivo
Phytophthora infestans = test: whole plant or invertebrate; settings: for pest or weed control at 4 µg/mL: Phytophthora infestans, in Solanum lycopersicum, 96 h, read-out: control value (Test 1); for control value (Test 1): tomato late blight, control value vs untreated section
[1] = test system: Pseudoperonospora cubensis; test: Test 2: control effect against cucumber downy mildew; settings: control value vs untreated section; for pest or weed control at 4 µg/mL: Pseudoperonospora cubensis, 120 h
Procedure, shortened: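 Protective test: zoospores (1.0×10^4 units/ml) misted one day after applying a 4 ppm suspension (wettable powder diluted in 1/5000 Tween20) to 2-leaf cucumber, Sagami hanjiro. After 16 hr at 22° C humid incubation, leaf lesion area read at day 5, expressed as control value versus untreated leaves.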

Plasmopara viticola = test: Test 3: control effect against grape downy mildew; settings: control value vs untreated section; for pest or weed control at 4 µg/mL: Plasmopara viticola, 120 h
Procedure, shortened: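 Leaf lesion area, scored 5 days after inoculation and compared with untreated plants, gives the control value. Inoculation used P. viticola zoospores (1.0×10^4 units/ml) with a 16 hr moist incubation at 22° C. It followed by one day a spray of 4 ppm compound (wettable powder in Tween20) onto Neomuscat seedlings.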

SMILES | pest or weed control at 4 µg/mL (Phytophthora infestans) [%] | pest or weed control at 4 µg/mL [1] [%] | pest or weed control at 4 µg/mL (Plasmopara viticola) [%] | control value (Test 1) (Phytophthora infestans) | control value (Test 2) [1] | control value (Test 3) (Plasmopara viticola)
CS(=O)(=O)Oc1ccc(Br)c2c1COC(c1csc(C3CCN(C(=O)Cn4nc(C(F)(F)F)cc4C(F)(F)F)CC3)n1)OC2 (stereo not drawn) [Compound 1-123, 4-[4-(6-bromo-9-methylsulfonyloxy-1,5-dihydro-3H-2,4-benzodioxepin-3-yl)-2-thiazolyl]-1-[2-[3,5-bis(trifluoromethyl)-1H-pyrazole-1-yl]acetyl]piperidine] | 100 | 100 | 100 |  |  | 
Cc1ccc(C)c(NC(=O)N2CCC(c3nc(C4OCc5c(F)ccc(OS(C)(=O)=O)c5CO4)cs3)CC2)c1 (stereo not drawn) [Compound 2-14] |  |  |  | 100 | 100 | 100
CS(=O)(=O)Oc1ccc(OS(C)(=O)=O)c2c1COC(c1csc(C3CCN(C(=O)Cn4nc(C(F)F)cc4C(F)F)CC3)n1)OC2 [Compound 1-146] |  |  |  | 100 | 100 | 100
Cc1cc(C(F)(F)F)nn1CC(=O)N1CCC(c2nc(C3OCc4cccc(NS(C)(=O)=O)c4CO3)cs2)CC1 (stereo not drawn) [Compound 1-43] |  |  |  | 80 | 100 | 100
O=C(CON=CC(F)(F)F)N1CCC(c2nc(C3OCc4cccc(F)c4CO3)cs2)CC1 (stereo not drawn) [Compound 3-2] |  |  |  | 100 | 100 | 100
Cc1cc(C(F)(F)F)nn1CC(=O)N1CCC(c2nc(C3OCc4cccc(OS(=O)(=O)C5CC5)c4CO3)cs2)CC1 (stereo not drawn) [Compound 1-13] |  |  |  | 100 | 100 | 100
N#Cc1cccc2c1COC(c1csc(C3CCN(C(=O)Cn4nc(C(F)F)cc4C(F)F)CC3)n1)OC2 (stereo not drawn) [Compound 1-148] |  |  |  | 100 | 100 | 100
Cc1cc(OS(C)(=O)=O)c2c(c1C)COC(c1csc(C3CCN(C(=O)Cn4nc(C(F)(F)F)cc4C(F)(F)F)CC3)n1)OC2 (stereo not drawn) [Compound 1-122] |  |  |  | 100 | 100 | 100
O=C(Cn1nc(C(F)F)cc1C(F)F)N1CCC(c2nc(C3OCc4cccc(-c5ccccc5)c4CO3)cs2)CC1 (stereo not drawn) [Compound 1-73] |  |  |  | 90 | 100 | 100
Cc1cc(C(F)(F)F)nn1CC(=O)N1CCC(c2nc(C3OCc4ccc([N+](=O)[O-])cc4CO3)cs2)CC1 (stereo not drawn) [Compound 1-27] |  |  |  | 100 | 100 | 100
COc1cccc2c1COC(c1csc(C3CCN(C(=O)Cn4nc(C(F)F)cc4C(F)F)CC3)n1)OC2 (stereo not drawn) [Compound 1-141] |  |  |  | 100 | 100 | 100
CCCCS(=O)(=O)Oc1cccc2c1COC(c1csc(C3CCN(C(=O)Cn4nc(C(F)(F)F)cc4C(F)(F)F)CC3)n1)OC2 (stereo not drawn) [Compound 1-68] |  |  |  | 100 | 100 | 100
COc1ccc(Br)c2c1COC(c1csc(C3CCN(C(=O)Cn4nc(C(F)(F)F)cc4C(F)(F)F)CC3)n1)OC2 (stereo not drawn) [Compound 1-82] |  |  |  | 100 | 100 | 100
Cc1cc(C(F)(F)F)nn1CC(=O)N1CCC(c2nc(C3OCc4cccc([N+](=O)[O-])c4CO3)cs2)CC1 (stereo not drawn) [Compound 1-12] |  |  |  | 100 | 100 | 100
O=C(Cn1nc(C(F)F)cc1C(F)F)N1CCC(c2nc(C3OCc4cccc(Cl)c4CO3)cs2)CC1 (stereo not drawn) [Compound 1-58] |  |  |  | 100 | 100 | 100
CS(=O)(=O)Oc1c(F)ccc2c1COC(c1csc(C3CCN(C(=O)Cn4nc(C(F)F)cc4C(F)F)CC3)n1)OC2 (stereo not drawn) [Compound 1-132, 4-[4-(7-fluoro-6-methylsulfonyloxy-1,5-dihydro-3H-2,4-benzodioxepin-3-yl)-2-thiazolyl]-1-[2-[3,5-bis(difluoromethyl)-1H-pyrazole-1-yl]acetyl]piperidine] | 100 | 100 | 100 |  |  | 
CCCCS(=O)(=O)Oc1cccc2c1COC(c1csc(C3CCN(C(=O)Cc4cc(C)ccc4C)CC3)n1)OC2 (stereo not drawn) [Compound 2-12, 4-[4-(6-butylsulfonyloxy-1,5-dihydro-3H-2,4-benzodioxepin-3-yl)-2-thiazolyl]-1-[2-(2,5-dimethylphenyl)acetyl]piperidine] | 80 | 90 | 80 |  |  | 
O=C(Cn1nc(C(F)F)cc1C(F)F)N1CCC(c2nc(C3OCc4ccc(C(F)(F)F)cc4CO3)cs2)CC1 (stereo not drawn) [Compound 1-60] |  |  |  | 100 | 100 | 100
CS(=O)(=O)Oc1ccc(Cl)c2c1COC(c1csc(C3CCN(C(=O)Cn4nc(C(F)F)cc4C(F)F)CC3)n1)OC2 (stereo not drawn) [Compound 1-116] |  |  |  | 100 | 100 | 100
O=C(Cn1nc(C(F)F)cc1C(F)F)N1CCC(c2nc(C3OCc4ccccc4CO3)cs2)CC1 [Compound 1-76] |  |  |  | 100 | 100 | 100
Cc1cc(OS(C)(=O)=O)c2c(c1C)COC(c1csc(C3CCN(C(=O)Cc4cc(Cl)ccc4Cl)CC3)n1)OC2 (stereo not drawn) [Compound 2-32] |  |  |  | 100 | 100 | 100
COc1ccc(OS(C)(=O)=O)c2c1COC(c1csc(C3CCN(C(=O)Cc4cc(Cl)ccc4Cl)CC3)n1)OC2 (stereo not drawn) [Compound 2-26] |  |  |  | 100 | 100 | 100
COc1ccc(OS(C)(=O)=O)c2c1COC(c1csc(C3CCN(C(=O)CON=CC(F)(F)F)CC3)n1)OC2 (stereo not drawn) [Compound 3-5] |  |  |  | 100 | 100 | 100
Cc1ccc(C)c(CC(=O)N2CCC(c3nc(C4OCc5c(OS(C)(=O)=O)ccc([N+](=O)[O-])c5CO4)cs3)CC2)c1 (stereo not drawn) [Compound 2-37] |  |  |  | 90 | 100 | 100
Cc1cc(OS(C)(=O)=O)c2c(c1C)COC(c1csc(C3CCN(C(=O)Cn4nc(C(F)F)cc4C(F)F)CC3)n1)OC2 (stereo not drawn) [Compound 1-121] |  |  |  | 100 | 100 | 100
Cc1ccc(OS(C)(=O)=O)c2c1COC(c1csc(C3CCN(C(=O)Cn4nc(C(F)(F)F)cc4C)CC3)n1)OC2 (stereo not drawn) [Compound 1-19] |  |  |  | 100 | 100 | 100
COc1ccc(OS(C)(=O)=O)c2c1COC(c1csc(C3CCN(C(=O)Cc4cc(C)ccc4C)CC3)n1)OC2 (stereo not drawn) [Compound 2-28] |  |  |  | 90 | 100 | 100

From patent publication US10104891B2 (priority 2014, dated 2018)
